From ChEMBL document CHEMBL1143694, “Fawcettimine-related alkaloids from Lycopodium serratum” (J Nat Prod, 2007)
pIC50: −log10 of the molar value. Calls of active or inactive are those of the source. The calls are words filed in the database; no cut-off is given here.

Biological target: Acetylcholinesterase (Homo sapiens, UniProt P22303)
Assay: Inhibition of AChE by Ellman method

Acetylcholinesterase, sequence (P22303 whole entry): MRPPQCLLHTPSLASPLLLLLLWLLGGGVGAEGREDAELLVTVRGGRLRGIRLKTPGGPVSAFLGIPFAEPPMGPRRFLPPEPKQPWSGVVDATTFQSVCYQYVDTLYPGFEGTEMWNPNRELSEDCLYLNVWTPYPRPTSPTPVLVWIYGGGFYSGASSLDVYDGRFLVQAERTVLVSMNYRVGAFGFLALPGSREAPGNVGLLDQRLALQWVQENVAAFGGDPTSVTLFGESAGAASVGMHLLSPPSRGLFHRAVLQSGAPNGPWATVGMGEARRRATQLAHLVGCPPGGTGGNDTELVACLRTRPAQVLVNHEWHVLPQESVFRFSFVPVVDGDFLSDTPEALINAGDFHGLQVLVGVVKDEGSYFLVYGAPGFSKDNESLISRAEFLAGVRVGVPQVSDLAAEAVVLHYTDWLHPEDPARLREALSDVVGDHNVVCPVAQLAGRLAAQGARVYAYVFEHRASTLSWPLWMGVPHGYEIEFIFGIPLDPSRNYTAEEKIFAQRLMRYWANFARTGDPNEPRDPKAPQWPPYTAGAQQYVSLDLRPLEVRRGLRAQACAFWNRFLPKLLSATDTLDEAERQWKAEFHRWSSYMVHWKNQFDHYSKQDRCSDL

Compound	pIC50	Activity
CC1=C[C@H]2[C@H](O)C(=O)[C@H]3CCCN4CCC[C@H]2[C@]34C1	4.78	–
C[C@H]1C=C2N3CC[C@@H](O)C24[C@H](CC(=O)[C@H]4C[C@H](O)C3)C1 (some centres undefined)	4.55	–
C[C@H]1C=C2N3CCC[C@@H]4C(=O)C[C@H](C1)C24[C@H](O)CC3 (some centres undefined)	–	inactive
C[C@H]1C[C@]2(O)N3CC=CC24[C@H](CCC3)C(=O)C[C@@H]4[C@H]1O (some centres undefined)	–	inactive
